Assays:
HiBit-KRAS^G12C [1] = molecular target: T1, HiBit-KRAS^G12C (Homo sapiens, UniProt P01116, G12C); test: HiBit degradation assay in MiaPaCa-2 HiBit-KRas^G12C cells; format: cell-based; details: 24 hours; for DC50: read-out: KRas^G12C-HiBiT (MiaPaCa; 0.5% DMSO) IC50
Method in brief: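 MiaPaCa-2 cells with CRISPR N-terminal HiBit knock-in on one endogenous KRAS^G12C allele, treated 24 hours at 37° C with compound titrated 10 μM to 20 nM (0.1% or 0.5% DMSO). Lytic HiBit luminescence normalized to DMSO, 4-parameter fit giving DC50 and Dmax; points cytotoxic to […] cells by alamar blue excluded.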

HiBit-KRAS^G12C [2] = molecular target: T1, HiBit-KRAS^G12C; test: HiBit degradation assay in SW1573 HiBit-KRas^G12C cells; format: cell-based; set-up: expressed in transfected cells; host or cells: SW1573 (clone E6), modified pcDNA3.1 vector, TK promoter; details: 24 hours
Method in brief: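 SW1573 cells stably expressing N-terminally HiBit-tagged KRAS G12C, under the TK promoter, were treated 24 h at 37 °C with 10 μM to 20 nM compound in 0.1% or 0.5% DMSO. Residual HiBit luminescence normalised to DMSO and fitted with a 4-parameter model for DC50 and Dmax. Points with ≥50% viability loss (alamar blue) excluded.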

[3] = MiaPaCa-2 HiBit-KRas^G12C cells, 0.5% DMSO
[4] = SW1573, SW1573 HiBit-KRas^G12C, 0.5% DMSO, read-out: KRas^G12C-HiBiT (SW1573; 0.5% DMSO) Dmax**
[5] = read-out: KRas^G12C-HiBiT (SW1573; 0.5% DMSO) IC50***, SW1573 HiBit-KRas^G12C, 0.5% DMSO
[6] = MIA PaCa-2, MiaPaCa-2 HiBit-KRas^G12C cells, 0.1% DMSO, maximum degradation, read-out: KRas^G12C-HiBiT (MiaPaCa; 0.1% DMSO) DMax
[7] = MIA PaCa-2, MiaPaCa-2 HiBit-KRas^G12C cells, 0.5% DMSO, maximum degradation, read-out: KRas^G12C-HiBiT (MiaPaCa; 0.5% DMSO) DMax
[8] = SW1573, SW1573 HiBit-KRas^G12C, 0.1% DMSO, read-out: KRas^G12C-HiBit (SW1573; 0.1% DMSO) Dmax**
[9] = SW1573 HiBit-KRas^G12C, 0.1% DMSO, read-out: KRas^G12C-HIBit (SW1573; 0.1% DMSO) DC50*

T1 sequence (P01116 1-186 isoform P01116-2 G12C limits assumed): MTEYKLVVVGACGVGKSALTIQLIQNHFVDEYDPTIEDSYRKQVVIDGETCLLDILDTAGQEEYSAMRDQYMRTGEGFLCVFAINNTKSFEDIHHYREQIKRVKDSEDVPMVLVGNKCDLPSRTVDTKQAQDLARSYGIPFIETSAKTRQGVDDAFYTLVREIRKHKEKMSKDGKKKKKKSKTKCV

DC50 (HiBit-KRAS^G12C [1]; [3]) [nM] | Dmax (HiBit-KRAS^G12C [2]; [4]) [%] | DC50 (HiBit-KRAS^G12C [2]; [5]) [nM] | Dmax (HiBit-KRAS^G12C [1]; [7]) [%] | DC50 (HiBit-KRAS^G12C [2]; [9]) [nM] | Compound | also measured
> 1000 | < 35 | 100 to 1000 | – | – | C=CC(=O)N1CCN(c2nc(OCCN3CCC(CN(C)c4cc([C@@H](C(=O)N5C[C@H](O)C[C@H]5C(=O)N[C@@H](C)c5ccc(-c6scnc6C)cc5)C(C)C)on4)CC3)nc3c(F)c(-c4cc(O)cc5ccccc45)c(Cl)cc23)C[C@@H]1CC#N [Compound 144, (2S,4R)-1-[(2S)-2-{3-[({1-[2-({6-chloro-4-[(3S)-3-(cyanomethyl)-4-(prop-2-enoyl)piperazin-1-yl]-8-fluoro-7-(3-hydroxynaphthalen-1-yl)quinazolin-2-yl}oxy)ethyl]piperidin-4-yl}methyl)(methyl)amino]-1,2-oxazol-5-yl}-3-methylbutanoyl]-4-hydroxy-N-[(1S)-1-[4-(4-methyl-1,3-thiazol-5-yl)phenyl]ethyl]pyrrolidine-2-carboxamide] | –
< 100 | – | < 100 | – | – | C=CC(=O)N1CCN(c2nc(OCCN3CCC4(CC3)CN(c3cc([C@H](C(=O)N5C[C@H](O)C[C@H]5C(=O)N[C@@H](C)c5ccc(-c6scnc6C)cc5)C(C)C)on3)C4)nc3c(F)c(-c4cc(O)cc5ccccc45)c(Cl)cc23)C[C@@H]1CC#N (atropisomer, axis not shown) [Compound 107, (2S,4R)-1-[(2R)-2-(3-{7-[2-({6-chloro-4-[(3S)-3-(cyanomethyl)-4-(prop-2-enoyl)piperazin-1-yl]-8-fluoro-7-(3-hydroxynaphthalen-1-yl)quinazolin-2-yl}oxy)ethyl]-2,7-diazaspiro[3.5]nonan-2-yl}-1,2-oxazol-5-yl)-3-methylbutanoyl]-4-hydroxy-N-[(1S)-1-[4-(4-methyl-1,3-thiazol-5-yl)phenyl]ethyl]pyrrolidine-2-carboxamide] | KRas^G12C-HiBiT (MiaPaCa; 0.5% DMSO) DMax (HiBit-KRAS^G12C [1]; MiaPaCa-2 HiBit-KRas^G12C cells, 0.5% DMSO, maximum degradation): B (35 < B < 70); KRas^G12C-HiBiT (SW1573; 0.5% DMSO) Dmax** (HiBit-KRAS^G12C [2]; SW1573 HiBit-KRas^G12C, 0.5% DMSO): B (35 < B < 70)
– | 35 to 70 | – | 35 to 70 | 100 to 1000 | C=CC(=O)N1CCN(c2nc(O[C@H](C)CN3CCC(OCCOCC(=O)N[C@H](C(=O)N4C[C@H](O)C[C@H]4C(=O)N[C@@H](C)c4ccc(-c5scnc5C)cc4)C(C)(C)C)CC3)nc3c(F)c(-c4cc(O)cc5ccccc45)c(Cl)cc23)C[C@@H]1CC#N [Compound 33, (2S,4R)-1-[(2S)-2-{2-[2-({1-[(2R)-2-({6-chloro-4-[(3S)-3-(cyanomethyl)-4-(prop-2-enoyl)piperazin-1-yl]-8-fluoro-7-(3-hydroxynaphthalen-1-yl)quinazolin-2-yl}oxy)propyl]piperidin-4-yl}oxy)ethoxy]acetamido}-3,3-dimethylbutanoyl]-4-hydroxy-N-[(1S)-1-[4-(4-methyl-1,3-thiazol-5-yl)phenyl]ethyl]pyrrolidine-2-carboxamide] | Dmax (HiBit-KRAS^G12C [1]; [6]): 35 to 70%; Dmax (HiBit-KRAS^G12C [2]; [8]): 35 to 70%
100 to 1000 | 35 to 70 | 100 to 1000 | 35 to 70 | – | C=CC(=O)N1CCN(c2nc(OCCN3CCC(COCC(=O)N[C@H](C(=O)N4C[C@H](O)C[C@H]4C(=O)N[C@@H](C)c4ccc(-c5scnc5C)cc4)C(C)(C)C)CC3)nc3c(F)c(-c4cccc5cccc(C)c45)c(Cl)cc23)C[C@@H]1CC#N [Compound 135, (2S,4R)-1-[(2S)-2-[2-({1-[2-({6-chloro-4-[(3S)-3-(cyanomethyl)-4-(prop-2-enoyl)piperazin-1-yl]-8-fluoro-7-(8-methylnaphthalen-1-yl)quinazolin-2-yl}oxy)ethyl]-piperidin-4-yl}methoxy)acetamido]-3,3-dimethylbutanoyl]-4-hydroxy-N-[(1S)-1-[4-(4-methyl-1,3-thiazol-5-yl)phenyl]ethyl]pyrrolidine-2-carboxamide] | –
> 1000 | – | > 1000 | – | – | C=CC(=O)N1CCN(c2nc(OCCN3CCC(COc4cc([C@@H](C(=O)N5C[C@H](O)C[C@H]5C(=O)N[C@@H](C)c5ccc(-c6ccnn6C)cc5)C(C)C)on4)CC3)nc3c(F)c(-c4cc(O)cc5ccccc45)c(Cl)cc23)C[C@@H]1CC#N [Compound 159, (2S,4R)-1-[(2S)-2-[3-({1-[2-({6-chloro-4-[(3S)-3-(cyanomethyl)-4-(prop-2-enoyl)piperazin-1-yl]-8-fluoro-7-(3-hydroxynaphthalen-1-yl)quinazolin-2-yl}oxy)ethyl]piperidin-4-yl}methoxy)-1,2-oxazol-5-yl]-3-methylbutanoyl]-4-hydroxy-N-[(1S)-1-[4-(1-methyl-1H-pyrazol-5-yl)phenyl]ethyl]pyrrolidine-2-carboxamide] | –
> 1000 | 35 to 70 | – | – | 100 to 1000 | C=CC(=O)N1CCN(c2nc(O[C@H](C)CN3CCC(OCCOCC(=O)N[C@H](C(=O)N4C[C@H](O)C[C@H]4C(=O)N[C@@H](C)c4ccc(-c5scnc5C)cc4)C(C)(C)C)CC3)nc3c(F)c(-c4cc(O)cc5ccccc45)c(Cl)cc23)[C@@H](C)C1 [Compound 39, (2S,4R)-1-[(2S)-2-{2-[2-({1-[(2R)-2-{[6-chloro-8-fluoro-7-(3-hydroxynaphthalen-1-yl)-4-[(2S)-2-methyl-4-(prop-2-enoyl)piperazin-1-yl]quinazolin-2-yl]oxy}propyl]piperidin-4-yl}oxy)ethoxy]acetamido}-3,3-dimethylbutanoyl]-4-hydroxy-N-[(1S)-1-[4-(4-methyl-1,3-thiazol-5-yl)phenyl]ethyl]pyrrolidine-2-carboxamide] | Dmax (HiBit-KRAS^G12C [1]; [6]): < 35%; Dmax (HiBit-KRAS^G12C [2]; [8]): 35 to 70%
100 to 1000 | > 70 | 100 to 1000 | > 70 | – | C=CC(=O)N1CCN(c2nc(OCCN3CCC(COCC(=O)N[C@H](C(=O)N4C[C@H](O)C[C@H]4C(=O)N[C@@H](C)c4ccc(-c5scnc5C)cc4)C(C)(C)C)CC3)nc3c(F)c(-c4nc(N)cc(C)c4C(F)(F)F)c(Cl)cc23)C[C@@H]1CC#N [Compound 115, (2S,4R)-1-[(2S)-2-[2-({1-[2-({7-[6-amino-4-methyl-3-(trifluoromethyl)pyridin-2-yl]-6-chloro-4-[(3S)-3-(cyanomethyl)-4-(prop-2-enoyl)piperazin-1-yl]-8-fluoroquinazolin-2-yl}oxy)ethyl]piperidin-4-yl}methoxy)acetamido]-3,3-dimethylbutanoyl]-4-hydroxy-N-[(1S)-1-[4-(4-methyl-1,3-thiazol-5-yl)phenyl]ethyl]pyrrolidine-2-carboxamide] | –

Compound | DC50 (HiBit-KRAS^G12C [1]; [3]) [nM] | Dmax (HiBit-KRAS^G12C [2]; [4]) [%] | DC50 (HiBit-KRAS^G12C [2]; [5]) [nM] | Dmax (HiBit-KRAS^G12C [1]; [7]) [%] | DC50 (HiBit-KRAS^G12C [2]; [9]) [nM] | also measured
C=CC(=O)N1CCN(c2nc(O[C@H](C)CN3CC(OC4CCN(CC(=O)N[C@H](C(=O)N5C[C@H](O)C[C@H]5C(=O)N[C@@H](C)c5ccc(-c6scnc6C)cc5)C(C)(C)C)CC4)C3)nc3c(F)c(-c4cc(O)cc5ccccc45)c(Cl)cc23)CC1 [Compound 46, (2S,4R)-1-[(2S)-2-{2-[4-({1-[(2R)-2-{[6-chloro-8-fluoro-7-(3-hydroxynaphthalen-1-yl)-4-[4-(prop-2-enoyl)piperazin-1-yl]quinazolin-2-yl]oxy}propyl]azetidin-3-yl}oxy)piperidin-1-yl]acetamido}-3,3-dimethylbutanoyl]-4-hydroxy-N-[(1S)-1-[4-(4-methyl-1,3-thiazol-5-yl)phenyl]ethyl]pyrrolidine-2-carboxamide] | – | – | – | – | 100 to 1000 | Dmax (HiBit-KRAS^G12C [1]; MIA PaCa-2, read-out: KRas^G12C-HiBiT (MiaPaCa; 0.1% DMSO) DMax, MiaPaCa-2 HiBit-KRas^G12C cells, 0.1% DMSO, maximum degradation): < 35%; Dmax (HiBit-KRAS^G12C [1]; MIA PaCa-2, read-out: KRas^G12C-HiBiT (MiaPaCa; 0.5% DMSO) DMax, MiaPaCa-2 HiBit-KRas^G12C cells, 0.5% DMSO, maximum degradation): 35 to 70%; Dmax (HiBit-KRAS^G12C [2]; SW1573, read-out: KRas^G12C-HiBiT (SW1573; 0.5% DMSO) Dmax**, SW1573 HiBit-KRas^G12C, 0.5% DMSO): 35 to 70%; Dmax (HiBit-KRAS^G12C [2]; SW1573, read-out: KRas^G12C-HiBit (SW1573; 0.1% DMSO) Dmax**, SW1573 HiBit-KRas^G12C, 0.1% DMSO): 35 to 70%
C=CC(=O)N1CCN(c2nc(OC[C@@H]3CCCN3CCCCOCC(=O)N[C@H](C(=O)N3C[C@H](O)C[C@H]3C(=O)N[C@@H](C)c3ccc(-c4scnc4C)cc3)C(C)(C)C)nc3c(F)c(-c4cc(O)cc5ccccc45)c(Cl)cc23)C[C@@H]1CC#N [Compound 100, (2S,4R)-1-[(2S)-2-(2-{4-[(2S)-2-[({6-chloro-4-[(3S)-3-(cyanomethyl)-4-(prop-2-enoyl)piperazin-1-yl]-8-fluoro-7-(3-hydroxynaphthalen-1-yl)quinazolin-2-yl}oxy)methyl]pyrrolidin-1-yl]butoxy}acetamido)-3,3-dimethylbutanoyl]-4-hydroxy-N-[(1S)-1-[4-(4-methyl-1,3-thiazol-5-yl)phenyl]ethyl]pyrrolidine-2-carboxamide] | > 1000 | < 35 | 100 to 1000 | < 35 | – | –
